# Test results from US10654853B2, “Spiro-condensed pyrrolidine derivatives as deubiquitylating enzymes (DUB) inhibitors” (MISSION THERAPEUTICS LIMITED, priority 2016, dated 2020).
# Target: Cezanne 1 (Homo sapiens (Human), UniProt Q6GQQ9)
# Assay: Cezanne 1 biochemical IC50 assay (fluorescence polarisation, TAMRA labelled peptide linked to ubiquitin)
# Conditions: Cezanne 1 biochemical IC50 assay; 30 min pre-incubation, read after 2 hr at room temperature; read-out: IC50 range
# Protocol: The Cezanne 1 construct was PCR amplified and cloned into a pFLAG-CMV-6c vector (Sigma-Aldrich) with an N-terminal FLAG tag. HEK293T cells were transfected with FLAG-Cezanne 1 using TransIT-LT1 transfection reagent (Mirus) according to the manufacturer's instructions. Cells were harvested 48 hours after transfection. […] The resin was washed two times with low salt buffer and one time with high salt buffer (20 mM Tris, pH 7.5, 500 mM NaCl, 0.5 mM EDTA, 5 mM beta-mercaptoethanol, protease inhibitors (complete mini, Roche) and phosphatase inhibitors (PhosSTOP mini, Roche). To elute the bound Cezanne 1, elution buffer (10 mM Tris, pH 7.5, 150 mM NaCl, 0.5 mM EDTA, 10% glycerol, 0.5% NP40, 5 mM beta-mercaptoethanol, 0.15 mg/ml 3× FLAG peptide (Sigma-Aldrich)) was added to the resin and incubated at 4° C. for 2.5 hours while rotating. The resin was centrifuged at 4000 rpm for 30 seconds, and the supernatant containing purified FLAG-Cezanne 1 was removed and stored at −80° C. […] Dilution plates were prepared at 21 times the final concentration (2100 μM for a final concentration of 100 μM) in 50% DMSO in a 96-well polypropylene V-bottom plate (Greiner #651201). […] Reactions were performed in duplicate in black 384 well plates (small volume, Greiner 784076) in a final reaction volume of 21 μl. Either 1 μl of 50% DMSO or diluted compound was added to the plate. Cezanne 1 was diluted in reaction buffer (40 mM Tris, pH 7.5, 0.005% Tween 20, 0.5 mg/ml BSA, 5 mM—beta-mercaptoethanol) to the equivalent of 0.005 μl/well and 10 μl of diluted Cezanne 1 was added to the compound. Enzyme and compound were incubated for 30 min at room temp. Reactions were initiated by the addition of 50 nM of TAMRA labelled peptide linked to ubiquitin via an iso-peptide bond as fluorescence polarisation substrate. Reactions were read immediately after addition of substrate and following a 2 hr incubation at room temperature. Readings were performed on a Pherastar Plus (BMG Labtech). λ Excitation 540 nm; λ Emission 590 nm.
# Cezanne 1, sequence (Q6GQQ9 whole entry): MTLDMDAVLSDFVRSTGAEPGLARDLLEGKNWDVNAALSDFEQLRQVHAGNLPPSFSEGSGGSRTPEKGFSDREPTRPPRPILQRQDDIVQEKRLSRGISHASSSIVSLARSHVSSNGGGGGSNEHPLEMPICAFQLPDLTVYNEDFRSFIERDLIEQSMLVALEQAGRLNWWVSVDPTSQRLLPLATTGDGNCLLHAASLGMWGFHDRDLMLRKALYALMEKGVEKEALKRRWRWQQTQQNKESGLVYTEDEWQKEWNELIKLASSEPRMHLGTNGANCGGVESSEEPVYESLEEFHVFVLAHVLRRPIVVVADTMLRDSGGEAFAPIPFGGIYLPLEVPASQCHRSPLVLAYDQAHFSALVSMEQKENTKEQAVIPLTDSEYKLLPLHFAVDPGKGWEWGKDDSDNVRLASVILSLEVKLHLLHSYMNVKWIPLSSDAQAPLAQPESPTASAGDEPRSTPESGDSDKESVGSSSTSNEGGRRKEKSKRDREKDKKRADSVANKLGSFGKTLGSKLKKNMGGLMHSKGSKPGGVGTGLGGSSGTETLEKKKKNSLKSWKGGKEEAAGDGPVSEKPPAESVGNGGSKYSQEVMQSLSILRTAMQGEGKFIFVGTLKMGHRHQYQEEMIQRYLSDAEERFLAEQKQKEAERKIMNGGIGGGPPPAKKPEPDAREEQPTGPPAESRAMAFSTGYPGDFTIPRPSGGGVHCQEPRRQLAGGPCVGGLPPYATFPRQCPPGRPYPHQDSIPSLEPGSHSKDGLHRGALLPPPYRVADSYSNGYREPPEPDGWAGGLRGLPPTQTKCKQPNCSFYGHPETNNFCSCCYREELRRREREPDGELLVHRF
row,IC50 [µM],SMILES
1,1 to 10,"Cn1cc(-c2ccc3c(c2)NC(=O)C2(CCN(C#N)C2)C3)ccc1=O (centres unmarked) [Example 39, 7′-(1-Methyl-6-oxo-1,6-dihydropyridin-3-yl)-2′-oxo-1′,4′-dihydro-2′H-spiro[pyrrolidine-3,3′-quinoline]-1-carbonitrile]"
2,0.1 to 1,"Cc1nc2cc(-c3ccc4c(c3)NC(=O)C3(CCN(C#N)C3)C4)ccc2s1 (centres unmarked) [Example 40, 7′-(2-Methylbenzo[d]thiazol-5-yl)-2′-oxo-1′,4′-dihydro-2′H-spiro[pyrrolidine-3,3′-quinoline]-1-carbonitrile]"
3,0.1 to 1,"N#CN1CCC2(Cc3cc(-c4ccccc4)ccc3NC2=O)C1 (centres unmarked) [Example 41, 2′-Oxo-6′-phenyl-1′,4′-dehydro-2′H-spiro[pyrrolidine-3,3′-quinoline]-1-carbonitrile]"
4,0.1 to 1,"N#Cc1ccc(-c2ccc3c(c2)CC2(CCN(C#N)C2)C(=O)N3)cc1 (centres unmarked) [Example 42, 6′-(4-Cyanophenyl)-2′-oxo-1′,4′-dihydro-2′H-spiro[pyrrolidine-3,3′-quinoline]-1-carbonitrile]"
5,0.1 to 1,"N#Cc1cccc(-c2ccc3c(c2)CC2(CCN(C#N)C2)C(=O)N3)c1 (centres unmarked) [Example 43, 6′-(3-Cyanophenyl)-2′-oxo-1′,4′-dihydro-2′H-spiro[pyrrolidine-3,3′-quinoline]-1-carbonitrile]"
6,0.1 to 1,"N#CN1CCC2(Cc3cc(-c4ccc(F)cc4)ccc3NC2=O)C1 (centres unmarked) [Example 44, 6′-(4-Fluorophenyl)-2′-oxo-1′,4′-dihydro-2′H-spiro[pyrrolidine-3,3′-quinoline]-1-carbonitrile]"
7,0.1 to 1,"N#CN1CCC2(Cc3cc(-c4cccc(F)c4)ccc3NC2=O)C1 (centres unmarked) [Example 45, 6′-(3-Fluorophenyl)-2′-oxo-1′,4′-dihydro-2′H-spiro[pyrrolidine-3,3′-quinoline]-1-carbonitrile]"
8,1 to 10,"CN(C)C(=O)c1ccc2c(c1)NC(=O)C1(CCN(C#N)C1)C2 (centres unmarked) [Example 46, 1-Cyano-N,N-dimethyl-2′-oxo-1′,4′-dihydro-2′H-spiro[pyrrolidine-3,3′-quinoline]-7′-carboxamide]"
9,1 to 10,"CNC(=O)c1ccc2c(c1)NC(=O)C1(CCN(C#N)C1)C2 (centres unmarked) [Example 47, 1-Cyano-N-methyl-2′-oxo-1′,4′-dihydro-2′H-spiro[pyrrolidine-3,3′-quinoline]-7′-carboxamide]"
10,0.1 to 1,"N#CN1CCC2(C1)Oc1ncccc1NC2=O (centres unmarked) [Example 48, 2-Oxo-1,2-dihydrospiro[pyrido[2,3-b][1,4]oxazine-3,3′-pyrrolidine]-1′-carbonitrile]"
11,0.1 to 1,"N#CN1CCC2(C1)Oc1ncc(-c3ccccc3)cc1NC2=O (centres unmarked) [Example 49, 2-Oxo-7-phenyl-1,2-dihydrospiro[pyrido[2,3-b][1,4]oxazine-3,3′-pyrrolidine]-1′-carbonitrile]"
12,0.1 to 1,"N#Cc1ccc(-c2cnc3c(c2)NC(=O)C2(CCN(C#N)C2)O3)cc1 (centres unmarked) [Example 50, 7-(4-Cyanophenyl)-2-oxo-1,2-dihydrospiro[pyrido[2,3-b][1,4]oxazine-3,3′-pyrrolidine]-1′-carbonitrile]"
13,0.1 to 1,"N#Cc1cccc(-c2cnc3c(c2)NC(=O)C2(CCN(C#N)C2)O3)c1 (centres unmarked) [Example 51, 7-(3-Cyanophenyl)-2-oxo-1,2-dihydrospiro[pyrido[2,3-b][1,4]oxazine-3,3′-pyrrolidine]-1′-carbonitrile]"
14,0.1 to 1,"N#CN1CCC2(C1)Oc1ncc(-c3ccc(F)cc3)cc1NC2=O (centres unmarked) [Example 52, 7-(4-Fluorophenyl)-2-oxo-1,2-dihydrospiro[pyrido[2,3-b][1,4]oxazine-3,3′-pyrrolidine]-1′-carbonitrile]"
15,0.1 to 1,"N#CN1CCC2(C1)Oc1ncc(-c3cccc(F)c3)cc1NC2=O (centres unmarked) [Example 53, 7-(3-Fluorophenyl)-2-oxo-1,2-dihydrospiro[pyrido[2,3-b][1,4]oxazine-3,3′-pyrrolidine]-1′-carbonitrile]"
16,0.1 to 1,"N#CN1CCC2(C1)Oc1nc(-c3ccccc3)ccc1NC2=O (centres unmarked) [Example 54, 2-Oxo-6-phenyl-1,2-dihydrospiro[pyrido[2,3-b][1,4]oxazine-3,3′-pyrrolidine]-1′-carbonitrile]"

row,IC50 [µM],SMILES
1,1 to 10,"N#CN1CCC2(C1)Nc1ncccc1NC2=O (centres unmarked) [Example 55, 2-Oxo-1,4-dihydro-2H-spiro[pyrido[2,3-b]pyrazine-3,3′-pyrrolidine]-1′-carbonitrile]"
2,1 to 10,"N#CN1CCC2(C1)Nc1nc(C(F)(F)F)ccc1NC2=O (centres unmarked) [Example 56, 2-Oxo-6-(trifluoromethyl)-1,4-dihydro-2H-spiro[pyrido[2,3-b]pyrazine-3,3′-pyrrolidine]-1′-carbonitrile]"
3,0.1 to 1,"N#CN1CCC2(C1)Nc1ncc(-c3ccccc3)cc1NC2=O (centres unmarked) [Example 57, 2-Oxo-7-phenyl-1,4-dihydro-2H-spiro[pyrido[2,3-b]pyrazine-3,3′-pyrrolidine]-1′-carbonitrile]"
4,0.1 to 1,"N#Cc1ccc(-c2cnc3c(c2)NC(=O)C2(CCN(C#N)C2)N3)cc1 (centres unmarked) [Example 58, 7-(4-Cyanophenyl)-2-oxo-1,4-dihydro-2H-spiro[pyrido[2,3-b]pyrazine-3,3′-pyrrolidine]-1′-carbonitrile]"
5,0.1 to 1,"N#CN1CCC2(C1)Nc1ncc(-c3ccc(F)cc3)cc1NC2=O (centres unmarked) [Example 59, 7-(4-Fluorophenyl)-2-oxo-1,4-dihydro-2H-spiro[pyrido[2,3-b]pyrazine-3,3′-pyrrolidine]-1′-carbonitrile]"
6,0.1 to 1,"N#CN1CCC2(C1)Nc1ncc(-c3cccc(F)c3)cc1NC2=O (centres unmarked) [Example 60, 7-(3-Fluorophenyl)-2-oxo-1,4-dihydro-2H-spiro[pyrido[2,3-b]pyrazine-3,3′-pyrrolidine]-1′-carbonitrile]"
7,1 to 10,"N#CN1CCC2(C1)Nc1cccnc1NC2=O (centres unmarked) [Example 61, 3-Oxo-3,4-dihydro-1H-spiro[pyrido[2,3-b]pyrazine-2,3′-pyrrolidine]-1′-carbonitrile]"
8,0.1 to 1,"N#CN1CC[C@@]2(C1)Oc1ncc(-c3ccccc3)cc1NC2=O [Example 64, (S)-2-Oxo-7-phenyl-1,2-dihydrospiro[pyrido[2,3-b][1,4]oxazine-3,3′-pyrrolidine]-1′-carbonitrile]"
9,1 to 10,"N#CN1CC[C@@]2(C1)Oc1ncccc1NC2=O [Example 65, (S)-2-Oxo-1,2-dihydrospiro[pyrido[2,3-b][1,4]oxazine-3,3′-pyrrolidine]-1′-carbonitrile]"
10,0.1 to 1,"N#CN1CC[C@@]2(C1)Nc1ncccc1NC2=O [Example 66, (S)-2-Oxo-1,4-dihydro-2H-spiro[pyrido[2,3-b]pyrazine-3,3′-pyrrolidine]-1′-carbonitrile]"
11,0.1 to 1,"N#CN1CC[C@@]2(C1)Nc1ncc(-c3ccccc3)cc1NC2=O [Example 68, (S)-2-Oxo-7-phenyl-1,4-dihydro-2H-spiro[pyrido[2,3-b]pyrazine-3,3′-pyrrolidine]-1′-carbonitrile]"
12,0.1 to 1,"N#CN1CC[C@@]2(C1)Oc1ncc(-c3cccc(F)c3)cc1NC2=O [Example 69, (S)-7-(3-Fluorophenyl)-2-oxo-1,2-dihydrospiro[pyrido[2,3-b][1,4]oxazine-3,3′-pyrrolidine]-1′-carbonitrile]"
13,0.1 to 1,"N#Cc1ccc(-c2cnc3c(c2)NC(=O)[C@@]2(CCN(C#N)C2)O3)cc1 [Example 70, (S)-7-(4-Cyanophenyl)-2-oxo-1,2-dihydrospiro[pyrido[2,3-b][1,4]oxazine-3,3′-pyrrolidine]-1′-carbonitrile]"
14,0.1 to 1,"N#Cc1cccc(-c2cnc3c(c2)NC(=O)[C@@]2(CCN(C#N)C2)O3)c1 [Example 71, (S)-7-(3-Cyanophenyl)-2-oxo-1,2-dihydrospiro[pyrido[2,3-b][1,4]oxazine-3,3′-pyrrolidine]-1′-carbonitrile]"
15,0.1 to 1,"N#CN1CC[C@@]2(C1)Nc1ncc(-c3ccc(F)cc3)cc1NC2=O [Example 72, (S)-7-(4-Fluorophenyl)-2-oxo-1,4-dihydro-2H-spiro[pyrido[2,3-b]pyrazine-3,3′-pyrrolidine]-1′-carbonitrile]"
16,0.1 to 1,"N#CN1CC[C@@]2(C1)Nc1ncc(-c3cccc(F)c3)cc1NC2=O [Example 73, (S)-7-(3-Fluorophenyl)-2-oxo-1,4-dihydro-2H-spiro[pyrido[2,3-b]pyrazine-3,3′-pyrrolidine]-1′-carbonitrile]"

row,SMILES,IC50 [µM]
1,"N#CN1CCC2(CCNC2=O)C1 (centres unmarked) [Example 62, 6-Oxo-2,7-diazaspiro[4.4]nonane-2-carbonitrile]",> 10
2,"N#CN1CC[C@]2(CCNC2=O)C1 [Example 63, (R)-6-Oxo-2,7-diazaspiro[4.4]nonane-2-carbonitrile]",1 to 10
3,"N#CN1CC[C@]2(Cc3cc(-c4ccccc4)ccc3NC2=O)C1 [Example 67, (R)-2′-Oxo-6′-phenyl-1′,4′-dihydro-2′H-spiro[pyrrolidine-3,3′-quinoline]-1-carbonitrile]",0.1 to 1
